{
  "source": "PubChem BioAssay AID618",
  "about": "(Sanford-Burnham Center for Chemical Genomics, 2007)",
  "note": "Calls of active or inactive are those of the source. How the calls were made is not given here.",
  "data": [
    {"system": "MT1-MMP promoter luciferase reporter cells, luminescence", "assay": "inhibitors of MT1-MMP promoter transcription, cell-based, luciferase reporter, luminescence (AID 618);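 further: actives suppress MT1-MMP promoter-driven transcription so potencies describe inhibitors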", "values": [
      {"smiles": "Cc1cc(C)c2c(N)c(C(=O)Nc3nccs3)sc2n1", "EC50": "1.32 µM"},
      {"smiles": "CCCCOc1ccc(C(=O)C(CN2CCOCC2)c2ccccc2)cc1", "note": "(configuration not stated)", "EC50": "13 µM"},
      {"smiles": "COc1cccc(-c2nc(-c3ccccn3)no2)c1", "EC50": "0.66 µM"},
      {"smiles": "Cc1nc(NC2=NCN(CCCN3CCOCC3)CN2)nc2c(C)cccc12", "EC50": "34.3 µM"},
      {"smiles": "COc1ccc(C(=O)Nc2ccc3c(c2)OCCO3)cc1", "EC50": "2.98 µM"},
      {"smiles": "O=C(N/N=C/c1ccc([N+](=O)[O-])s1)c1ccccc1Br", "EC50": "2.8 µM"},
      {"smiles": "c1ccc(-c2nc(-c3ccccn3)no2)cc1", "EC50": "8.19 µM"},
      {"smiles": "Cc1c(NC(=O)c2coc(=O)c(Br)c2)c(=O)n(-c2ccccc2)n1C", "EC50": "13.1 µM"},
      {"smiles": "COc1ccc(C(=O)/C=C/Nc2cccc(O)c2)cc1", "EC50": "1.23 µM"},
      {"smiles": "O=C(Nc1ccc(NC(=O)c2ccco2)nc1)c1ccccn1", "EC50": "9.01 µM"},
      {"smiles": "Cc1ccc(C(=O)Nc2cnc3ccccc3c2)cc1", "EC50": "0.2 µM"},
      {"smiles": "COc1cccc(C(=O)Nc2nc3ccccc3[nH]2)c1", "EC50": "0.96 µM"},
      {"smiles": "Cc1ccccc1C(=O)N/N=C/c1ccc([N+](=O)[O-])s1", "EC50": "25.5 µM"},
      {"smiles": "CC(C)c1ccc(-c2nnn(CCC(=O)O)n2)cc1", "EC50": "1.04 µM"},
      {"smiles": "Cc1ccc(-c2nc3cc(N)ccc3o2)c(C)c1", "EC50": "2.68 µM"},
      {"smiles": "Cc1csc(NC(=O)c2cc3c(s2)CCCC3)n1", "EC50": "1.26 µM"},
      {"smiles": "O=c1c2sc(-c3ccccc3)cc2nc2n1CCC2", "EC50": "4.05 µM"},
      {"smiles": "Cc1nn2cc(-c3ccccc3)nc2s1", "EC50": "12.3 µM"},
      {"smiles": "COc1ccc(-c2nc3ccccc3[nH]2)cc1", "EC50": "2.72 µM"},
      {"smiles": "O=C(CCCOc1ccccc1)N1CCCCC1", "EC50": "6.96 µM"},
      {"smiles": "CCc1nnc(NC(=O)c2ccc(OC)cc2OC)s1", "EC50": "6.08 µM"},
      {"smiles": "O=C(Nc1nc2c(s1)CCCC2)C1COc2ccccc2O1", "note": "(configuration not stated)", "EC50": "2.4 µM"},
      {"smiles": "Cn1ccnc1SCc1cn2cc(Br)ccc2n1", "EC50": "15 µM"},
      {"smiles": "Cc1ccc(NC2=Nc3ccccc3CC2)cc1", "EC50": "2.72 µM"},
      {"smiles": "O=C(Nc1ccc2c(c1)OCCO2)c1cncc(Br)c1", "EC50": "7.14 µM"},
      {"smiles": "Cc1cc(C)c2c(N)c(C(=O)Nc3ncc(C)s3)sc2n1", "EC50": "0.21 µM"},
      {"smiles": "c1ccc(-c2noc(-c3cccs3)n2)nc1", "EC50": "> 50 µM (inactive)"},
      {"smiles": "CC(C)(C)c1ccc(OCC(O)CSc2ncn[nH]2)cc1", "note": "(configuration not stated)", "EC50": "16.9 µM"},
      {"smiles": "Oc1c(CN2CCc3ccccc3C2)cc(Cl)c2cccnc12", "EC50": "5.81 µM"},
      {"smiles": "Cc1nc(Nc2nc3ccccc3o2)nc2c1CCC2", "EC50": "3.09 µM"},
      {"smiles": "Cc1ccc(NC(=O)N2CCc3ccccc32)cc1", "EC50": "3.38 µM"},
      {"smiles": "COC(=O)c1nn(-c2ccc(-c3ccccc3)cc2)cc1O", "EC50": "1.48 µM"},
      {"smiles": "Cc1ccsc1/C=C1\\CCc2ccccc2C1=O", "EC50": "3.09 µM"},
      {"smiles": "c1ccc(-c2cn3nc4c(nc3n2)CCCC4)cc1", "EC50": "0.54 µM"},
      {"smiles": "COc1ccc(N=CC2=C(O)c3ccccc3C2=O)c(OC)c1", "EC50": "0.79 µM"},
      {"smiles": "CCOc1ccc(-c2cc(CCCC(=O)NCCCOC)no2)cc1", "EC50": "8.32 µM"},
      {"smiles": "Cc1cc(NC(=O)CSc2nc(-c3ccco3)cc(C(F)(F)F)n2)no1", "EC50": "> 50 µM (inactive)"},
      {"smiles": "CC1CCN(c2nc3ccc(C(=O)O)cc3s2)CC1", "EC50": "0.35 µM"},
      {"smiles": "O=C1C(N2CCOCC2)=C(n2nnc3ccccc32)C(=O)c2ccccc21", "EC50": "10.5 µM"},
      {"smiles": "O=C(/C=C/Nc1cccc(O)c1)c1ccccc1", "EC50": "1.32 µM"},
      {"smiles": "O=S1(=O)Nc2c(ccc3cccnc23)-c2ccccc21", "EC50": "24.6 µM"},
      {"smiles": "COc1cccc(Cn2c(NCc3cccnc3)nc3c2c(=O)n(C)c(=O)n3C)c1", "EC50": "0.25 µM"},
      {"smiles": "Cc1ccc(-c2nc3cc(N)ccc3o2)cc1", "EC50": "2.91 µM"},
      {"smiles": "Cc1ccc2nc(-c3cccc(N)c3)[nH]c2c1", "EC50": "2.8 µM"},
      {"smiles": "CC1=CC(C)(C)Nc2ccc(OC(=O)CN3C(=O)CCC3=O)cc21", "EC50": "42 µM"},
      {"smiles": "Cc1cc(N)n2nc(-c3ccccc3)cc2n1", "EC50": "34.4 µM"},
      {"smiles": "CCN=C1NN=C(c2ccc(C)cc2)CS1", "EC50": "1.98 µM"}
    ]}
  ]
}
